In ChEMBL document CHEMBL6103618, “Discovery of Novel Oxazolo[4,3-f]purine Derivatives as Antitumor Agents through PPIA Interaction” (J Med Chem, 2025):

Assays:
Assay type in all cases: functional, cell-based
HeLa = experiment: Antiproliferative activity against human HeLa cells assessed as inhibition of cell viability incubated for 48 hrs by CCK8 assay
HCT-116 = experiment: Antiproliferative activity against human HCT-116 cells assessed as inhibition of cell viability incubated for 48 hrs by CCK8 assay; conditions: HCT-116, 48 h
MCF7 = experiment: Antiproliferative activity against human MCF7 cells assessed as inhibition of cell viability incubated for 48 hrs by CCK8 assay; conditions: MCF7, 48 h
SW480 = experiment: Antiproliferative activity against human SW480 cells assessed as inhibition of cell viability incubated for 48 hrs by CCK8 assay; conditions: SW480, 48 h
CT26 = experiment: Antiproliferative activity against mouse CT26 cells assessed as inhibition of cell viability incubated for 48 hrs by CCK8 assay; conditions: CT26, 48 h
PANC-1 = experiment: Antiproliferative activity against human PANC-1 cells assessed as inhibition of cell viability incubated for 48 hrs by CCK8 assay; conditions: PANC-1, 48 h
HepG2 = experiment: Antiproliferative activity against human HepG2 cells assessed as inhibition of cell viability incubated for 48 hrs by CCK8 assay; conditions: HepG2, 48 h

Row | SMILES | IC50 (HeLa) | IC50 (HCT-116) | other results
1 | CCOC(=O)/C=C\N1c2nc(Cl)nc(Cl)c2N2C(c3ccccc3)OC(C(=O)OCC)(C(=O)OCC)C12 (configuration not stated) | > 50 µM | > 50 µM | –
2 | C=C(C(=O)OC)N1c2nc(Cl)nc(Cl)c2N2[C@@H](c3ccccc3F)OC(C(=O)OCC)(C(=O)OCC)[C@H]12 | 0.74 µM | 0.24 µM | –
3 | C=C(C(=O)OC)N1c2nc(Cl)nc(Cl)c2N2[C@H](c3ccccc3F)OC(C(=O)OCC)(C(=O)OCC)[C@@H]12 | 0.47 µM | 0.65 µM | –
4 | CCOC(=O)/C=C/N1c2nc(Cl)nc(Cl)c2N2C(c3cccc([N+](=O)[O-])c3)OC(C(=O)OCC)(C(=O)OCC)C12 (racemic) | 6.52 µM | 4.33 µM | –
5 | CCOC(=O)/C=C/N1c2nc(Cl)nc(Cl)c2N2C(c3ccc(I)cc3)OC(C(=O)OCC)(C(=O)OCC)C12 (racemic) | > 50 µM | 15.8 µM | –
6 | CCOC(=O)/C=C/N1c2nc(Cl)nc(Cl)c2N2C(c3ccccc3I)OC(C(=O)OCC)(C(=O)OCC)C12 (racemic) | 10.2 µM | 3.73 µM | –
7 | CCOC(=O)/C=C/N1c2nc(Cl)nc(Cl)c2N2C(c3cccc(Br)c3)OC(C(=O)OCC)(C(=O)OCC)C12 (racemic) | 11.7 µM | 7.92 µM | –
8 | CCOC(=O)/C=C/N1c2nc(Cl)nc(Cl)c2N2C(c3ccccc3)OC(C(=O)OCC)C12 (racemic) | 6.57 µM | 11.9 µM | –
9 | CCOC(=O)C1(C(=O)OCC)OC(c2ccccc2)N2c3c(Cl)nc(Cl)nc3N(/C=C/C(=O)OC(C)(C)C)C21 (racemic) | > 50 µM | > 50 µM | –
10 | CCOC(=O)/C=C/N1c2nc(Cl)nc(Cl)c2N2C(c3cc(OC)c(OC)c(OC)c3)OC(C(=O)OCC)(C(=O)OCC)C12 (racemic) | > 50 µM | 14 µM | –
11 | CCOC(=O)/C=C/N1c2nc(Cl)nc(Cl)c2N2C(c3ccc(Cl)c(Cl)c3)OC(C(=O)OCC)(C(=O)OCC)C12 (racemic) | 16.4 µM | 10.9 µM | –
12 | CCOC(=O)/C=C/N1c2nc(Cl)nc(Cl)c2N2C(c3ccc(C)cc3)OC(C(=O)OCC)(C(=O)OCC)C12 (racemic) | 43.7 µM | 20.7 µM | –
13 | CCCSc1nc(Cl)nc2c1N1C(c3ccccc3)OC(C(=O)OCC)(C(=O)OCC)C1N2/C=C/C(=O)OCC (racemic) | > 50 µM | > 50 µM | –
14 | CCOC(=O)/C=C/N1c2nc(Cl)nc(Cl)c2N2C(c3cccc4ccccc34)OC(C(=O)OCC)(C(=O)OCC)C12 (racemic) | > 50 µM | > 50 µM | –
15 | CCOC(=O)/C=C/N1c2nc(Cl)nc(Cl)c2N2C(c3cccc(OC)c3)OC(C(=O)OCC)(C(=O)OCC)C12 (racemic) | 45.9 µM | 20.7 µM | –
16 | C=C(C(=O)OCC)N1c2nc(Cl)nc(Cl)c2N2C(c3ccccc3F)OC(C(=O)OCC)(C(=O)OCC)C12 (racemic) | 0.55 µM | 0.82 µM | –
17 | C=C(C(=O)OCC)N1c2nc(Cl)nc(Cl)c2N2C(c3ccccc3Br)OC(C(=O)OCC)(C(=O)OCC)C12 (racemic) | 4.78 µM | 6.16 µM | –
18 | CCOC(=O)C1(C(=O)OCC)OC(c2ccccc2)N2c3c(Cl)nc(Cl)nc3N(/C=C/C(=O)OCc3ccccc3)C21 (racemic) | > 50 µM | > 50 µM | –
19 | CCOC(=O)/C=C/N1c2nc(Cl)nc(N)c2N2C(c3ccccc3)OC(C(=O)OCC)(C(=O)OCC)C12 (racemic) | > 50 µM | > 50 µM | –
20 | CCOC(=O)/C=C/N1c2nc(Cl)nc(Cl)c2N2C(c3ccccc3)OC(C(=O)OCc3ccccc3)(C(=O)OCc3ccccc3)C12 (racemic) | > 50 µM | > 50 µM | –
21 | CCOC(=O)/C=C/N1c2ncncc2N2C(c3ccccc3)OC(C(=O)OCC)(C(=O)OCC)C12 (racemic) | > 50 µM | > 50 µM | –
22 | CCOC(=O)/C=C/N1c2nc(Cl)nc(Cl)c2N2C(c3ccccc3F)OC(C(=O)OCC)(C(=O)OCC)C12 (racemic) | 2.12 µM | 2.19 µM | –
23 | CCOC(=O)/C=C/N1c2nc(Cl)nc(Cl)c2N2C(c3ccccc3)OC(C(=O)OCC)(C(=O)OCC)C12 (racemic) | 12.3 µM | 13.8 µM | –
24 | CCOC(=O)/C=C/N1c2nc(Cl)nc(Cl)c2N2C(c3ccc([N+](=O)[O-])cc3)OC(C(=O)OCC)(C(=O)OCC)C12 (racemic) | 9.73 µM | 4.94 µM | –
25 | CCOC(=O)/C=C/N1c2nc(F)nc(Cl)c2N2C(c3ccccc3)OC(C(=O)OCC)(C(=O)OCC)C12 (racemic) | 18.3 µM | 18.6 µM | –
26 | CCCSc1ncnc2c1N1C(c3ccccc3)OC(C(=O)OCC)(C(=O)OCC)C1N2/C=C/C(=O)OCC (racemic) | > 50 µM | > 50 µM | –
27 | C=C(C(=O)OCC)N1c2nc(Cl)nc(Cl)c2N2C(c3ccccc3Cl)OC(C(=O)OCC)(C(=O)OCC)C12 (racemic) | 2.8 µM | 2.47 µM | –

Row | SMILES | IC50 (HeLa) | IC50 (HCT-116) | other results
28 | CCOC(=O)/C=C/N1c2nc(Cl)nc(Cl)c2N2C(c3ccccc3Cl)OC(C(=O)OCC)(C(=O)OCC)C12 (racemic) | 3.55 µM | 2.7 µM | –
29 | CCOC(=O)/C=C/N1c2nc(Cl)nc(Cl)c2N2C(c3ccc(Br)cc3)OC(C(=O)OCC)(C(=O)OCC)C12 (racemic) | 13.7 µM | 9.32 µM | –
30 | CCOC(=O)/C=C/N1c2nc(Cl)nc(Cl)c2N2C(c3ccc(F)cc3)OC(C(=O)OCC)(C(=O)OCC)C12 (racemic) | 7.16 µM | 6.97 µM | –
31 | CCOC(=O)/C=C/N1c2nc(Cl)nc(Cl)c2N2C(c3ccc4ccccc4c3)OC(C(=O)OCC)(C(=O)OCC)C12 (racemic) | > 50 µM | > 50 µM | –
32 | CCOC(=O)/C=C/N1c2nc(Cl)nc(Cl)c2N2C(c3cccs3)OC(C(=O)OCC)(C(=O)OCC)C12 (racemic) | > 50 µM | > 50 µM | –
33 | CCOC(=O)/C=C/N1c2nc(Cl)nc(Cl)c2N2C(c3ccccc3Br)OC(C(=O)OCC)(C(=O)OCC)C12 (racemic) | 3.15 µM | 3.41 µM | –
34 | CCOC(=O)C1(C(=O)OCC)OC(c2ccccc2)N2c3c(Cl)nc(Cl)nc3N(/C=C/C(=O)OC)C21 (racemic) | 11.2 µM | 14.2 µM | –
35 | CCOC(=O)/C=C/N1c2nc(Cl)nc(Cl)c2N2C(c3cccc(C)c3)OC(C(=O)OCC)(C(=O)OCC)C12 (racemic) | 26.2 µM | 10.4 µM | –
36 | CCOC(=O)/C=C/N1c2nc(Cl)nc(Cl)c2N2C(c3ccc(Cl)cc3)OC(C(=O)OCC)(C(=O)OCC)C12 (racemic) | > 50 µM | 7.14 µM | –
37 | CCOC(=O)/C=C/N1c2nc(Cl)nc(Cl)c2N2C(c3ccc(C(F)(F)F)cc3)OC(C(=O)OCC)(C(=O)OCC)C12 (racemic) | > 50 µM | 7.13 µM | –
38 | CCOC(=O)/C=C/N1c2nc(Cl)nc(Cl)c2N2C(c3ccccc3)OC(COS(=O)(=O)c3ccc(C)cc3)(COS(=O)(=O)c3ccc(C)cc3)C12 (racemic) | > 50 µM | > 50 µM | –
39 | CCOC(=O)/C=C/N1c2nc(Cl)nc(Cl)c2N2C(c3cccc(F)c3)OC(C(=O)OCC)(C(=O)OCC)C12 (racemic) | 6.72 µM | 5.1 µM | –
40 | CCOC(=O)/C=C/N1c2nc(Cl)nc(Cl)c2N2C(c3ccc(-c4ccccn4)cc3)OC(C(=O)OCC)(C(=O)OCC)C12 (racemic) | > 50 µM | 21.7 µM | –
41 | CCOC(=O)/C=C/N1c2nc(Cl)nc(Cl)c2N2C(c3ccccc3C)OC(C(=O)OCC)(C(=O)OCC)C12 (racemic) | 12.4 µM | 9.84 µM | –
42 | CCOC(=O)/C=C/N1c2ncnc(OC)c2N2C(c3ccccc3)OC(C(=O)OCC)(C(=O)OCC)C12 (racemic) | > 50 µM | > 50 µM | –
43 | CCOC(=O)/C=C/N1c2nc(Cl)nc(Cl)c2N2C(c3cccc(C(F)(F)F)c3)OC(C(=O)OCC)(C(=O)OCC)C12 (racemic) | 10 µM | 3.56 µM | –
44 | CCOC(=O)/C=C/N1c2nc(Cl)nc(Cl)c2N2C(c3ccccc3)OC(C(=O)OC)(C(=O)OC)C12 (racemic) | 12.6 µM | 6.93 µM | –
45 | CCOC(=O)/C=C/N1c2nc(Cl)nc(Cl)c2N2C(c3ccccc3C(F)(F)F)OC(C(=O)OCC)(C(=O)OCC)C12 (racemic) | 4.95 µM | 3.29 µM | –
46 | CCOC(=O)/C=C/N1c2nc(Cl)nc(Cl)c2N2C(c3cccc(Cl)c3)OC(C(=O)OCC)(C(=O)OCC)C12 (racemic) | 16.6 µM | 7.36 µM | –
47 | CCOC(=O)/C=C/N1c2nc(Cl)nc(OC)c2N2C(c3ccccc3)OC(C(=O)OCC)(C(=O)OCC)C12 (racemic) | > 50 µM | > 50 µM | –
48 | C=C(C(=O)OCC)N1c2nc(Cl)nc(Cl)c2N2C(c3ccccc3)OC(C(=O)OCC)(C(=O)OCC)C12 (racemic) | 1.74 µM | 2.5 µM | –
49 | C=C(C(=O)OC)N1c2nc(Cl)nc(Cl)c2N2C(c3ccccc3)OC(C(=O)OCC)(C(=O)OCC)C12 (racemic) | 2.36 µM | 2.18 µM | –
50 | CCOC(=O)/C=C/N1c2ncnc(Cl)c2N2C(c3ccccc3)OC(C(=O)OCC)(C(=O)OCC)C12 (racemic) | > 50 µM | 34 µM | –
51 | CCOC(=O)/C=C/N1c2nc(Cl)nc(Cl)c2N2C(c3ccccc3)OC(CO)(CO)C12 (racemic) | 15.4 µM | 11.2 µM | –
52 | CCOC(=O)/C=C/N1c2nc(Cl)nc(Cl)c2N2C(c3ccccc3)OC(CO)C12 (racemic) | 18.3 µM | 11.4 µM | –
53 | CCOC(=O)/C=C/N1c2nc(Cl)nc(Cl)c2N2C(c3ccc(C)c(C)c3)OC(C(=O)OCC)(C(=O)OCC)C12 (racemic) | 1.92 µM | 14.9 µM | –
54 | C/C=C/C[C@@H](C)[C@@H](O)[C@H]1C(=O)N[C@@H](CC)C(=O)N(C)CC(=O)N(C)[C@@H](CC(C)C)C(=O)N[C@@H](C(C)C)C(=O)N(C)[C@@H](CC(C)C)C(=O)N[C@@H](C)C(=O)N[C@H](C)C(=O)N(C)[C@@H](CC(C)C)C(=O)N(C)[C@@H](CC(C)C)C(=O)N(C)[C@@H](C(C)C)C(=O)N1C [CYCLOSPORINE] | 2.17 µM | – | IC50 (MCF7): 6.12 µM; IC50 (SW480): 5.16 µM; IC50 (CT26): 11.4 µM; IC50 (PANC-1): 13.3 µM; IC50 (HepG2): 12.3 µM
